Data from ChEMBL document CHEMBL1127438, “Substituted (S)-phenylpiperidines and rigid congeners as preferential dopamine autoreceptor antagonists: synthesis and structure-activity relationships” (J Med Chem, 1994).
“And” between values parts separate entries of the source, which are not always exact repeats. Equal entries are not always repeated.

Assays:
Dopamine receptor = experiment: Tested for in vitro binding affinity against cloned mammalian dopamine autoreceptor (DA) receptors expressed in CHO-K1 cells using [3H]U-86170 as radioligand; format: cell-based
D(3) dopamine receptor [1] = biological target: T1, D(3) dopamine receptor (Homo sapiens, UniProt P35462); experiment: Tested for in vitro binding affinity against cloned mammalian dopamine autoreceptor (DA) receptors expressed in CHO-K1 cells [3H]-spiperone as radioligand; format: cell-based
D(2) dopamine receptor [2] = biological target: T2, D(2) dopamine receptor (Rattus norvegicus, UniProt P61169); experiment: Tested for affinity against striatal dopamine autoreceptor (DA) D2 receptors using [3H]spiperone as radioligand in rats.
Rattus norvegicus [3] = experiment: Compound is evaluated for DOPA accumulation in reserpine-pretreated habituated rats at 100 umol/kg of subcuteneous dose in rat striatum; format: functional
Rattus norvegicus [4] = experiment: Evaluated for biochemical levels of DOPAC in nonpretreated habituated rats for subcuteneous dose of 100 micro mol/kg in rat striatum; format: functional
Rattus norvegicus [5] = experiment: Compound is evaluated for locomotor activity in reserpine-pretreated habituated rats for (100 umol/kg) subcuteneous dose; format: functional
Rattus norvegicus [6] = experiment: Evaluated for locomotor activity in nonpretreated habituated rats at 100 umol/kg of subcuteneous dose; format: functional; parameters: unit not given here
D(2) dopamine receptor [7] = biological target: T3, D(2) dopamine receptor (Homo sapiens, UniProt P14416); experiment: biochemical
Description: Affinity against recombinant dopamine receptor (DA) D2 expressed in CHO-K1 cells, using [3H]-spiperone as radioligand

Rattus norvegicus [8] = experiment: Evaluated for DOPA accumulation in nonhabituated rats at 100 umol/kg of subcuteneous dose in rat striatum; format: functional
Rattus norvegicus [9] = experiment: Effect (60 min after administration of 200 (micro mol/kg) subcuteneous dose on DA release in brain dialysis model of rat striatum; format: functional
Rattus norvegicus [10] = experiment: Compound is evaluated for locomotor activity in reserpine-pretreated habituated rats at 100 umol/kg of subcuteneous dose; format: functional
Rattus norvegicus [11] = experiment: Compound is evaluated for locomotor activity in nonhabituated rats at 100 umol/kg of subcuteneous dose; format: functional
Rattus norvegicus [12] = experiment: Compound is evaluated DOPA accumulation in nonhabituated rats for (1.3 micro mol/kg) subcuteneous dose in rat striatum; format: functional
Rattus norvegicus [13] = experiment: Compound is tested for its ability to displace Di-Pr-5,6-ADTN at […] subcutaneous dose from rat striatal binding sites in vivo; format: functional
Rattus norvegicus [14] = experiment: Effect (60 min after administration of 200 (5.3 umol/kg) subcuteneous dose on DA release in brain dialysis model of rat; format: functional
Rattus norvegicus [15] = species: Rattus norvegicus; experiment: Compound is tested for concomitant ability to antagonize the locomotor activity induced by Di-Pr-5,6-ADTN; format: functional
Rattus norvegicus [16] = experiment: Compound is evaluated for locomotor activity in nonpretreated habituated rats at 1.6 micro mol/kg of subcuteneous dose; format: functional
Rattus norvegicus [17] = experiment: Compound is evaluated for locomotor activity in nonhabituated rats at 1.3 micro mol/kg of subcuteneous dose; format: functional
Rattus norvegicus [18] = experiment: Compound is evaluated for biochemical levels of DOPAC in nonpretreated habituated rats for subcuteneous dose of 100 umol/kg in rat striatum; format: functional
Rattus norvegicus [19] = experiment: Compound is evaluated for accumulation of DOPA in nonhabituated rats at 100 umol/kg of subcuteneous dose in rat striatum; format: functional
Rattus norvegicus [20] = experiment: Effect 60 min after administration of 200 (umol/kg) subcuteneous dose on DA release in rat brain dialysis model; format: functional
D(3) dopamine receptor [21] = biological target: T1, D(3) dopamine receptor; experiment: Tested for in vitro binding affinity against cloned mammalian dopamine D3 receptor, expressed in CHO-K1 cells, using [3H]spiperone as radioligand; format: cell-based
Rattus norvegicus [22] = experiment: Evaluated biochemically in reserpine-pretreated habituated rats for (100 umol/kg) subcuteneous dose in rat striatum (DOPAacc), Value expressed as counts/30 min; format: functional
Rattus norvegicus [23] = experiment: Evaluated for DOPAC level in nonpretreated habituated rats after subcuteneous dose of 100 micro mol/kg in rat striatum; format: functional
Rattus norvegicus [24] = experiment: Effect of (60 min after administration of 200 (uM/kg) subcuteneous dose on DA release in brain dialysis model of rat striatum; Values expressed as percent of saline controls; format: functional
Rattus norvegicus [25] = experiment: Tested in vivo for its ability to displace DA receptor agonist (Di-Pr-5,6-ADTN) from rat striatal binding sites at 0.25 uM/Kg sc. dose (after subtraction of cerebellum levels); format: functional
Rattus norvegicus [26] = experiment: Evaluated biochemically in nonhabituated rats for (100 umol/kg) subcuteneous dose, Value expressed as locomotor activity (LMA); format: functional
Rattus norvegicus [27] = experiment: Evaluated biochemically in nonpretreated habituated rats for (100 uM/kg) subcuteneous dose, Value expressed as locomotor activity (LMA); format: functional
Rattus norvegicus [28] = experiment: Evaluated biochemically in reserpine-pretreated habituated rats for (100 umol/kg) subcuteneous dose, Value expressed as locomotor activity (LMA); format: functional
Rattus norvegicus [29] = experiment: Compound is evaluated for DOPAC level in nonpretreated habituated rats after subcuteneous dose (100 micro mol/kg) in rat striatum; value expressed as percent of saline controls; format: functional
Rattus norvegicus [30] = species: Rattus norvegicus; experiment: Tested in vio for concomitant ability to antagonize the locomotor activity of rat induced by Di-Pr-5,6-ADTN, Value expressed as locomotor activity (LMA), % of control; format: functional; parameters: scale not given: the % may be the effect or the level left
D(2) dopamine receptor [31] = biological target: T2, D(2) dopamine receptor
Description: Affinity against striatal dopamine D2 receptors using [3H]spiperone as radioligand in rats.

D(2) dopamine receptor [32] = biological target: T3, D(2) dopamine receptor; experiment: biochemical; remark: listed apart in the source
Description: In vitro binding affinity against cloned mammalian dopamine D2 autoreceptor, expressed in CHO-K1 cells, using [3H]U-86170 as radioligand

Rattus norvegicus [33] = experiment: Evaluated for DOPA accumulation (DOPAacc) level in nonhabituated rats after subcuteneous dose (100 uM/kg) in rat striatum; format: functional
Rattus norvegicus [34] = experiment: Compound is evaluated biochemically in nonhabituated rats for (100 umol/kg) subcuteneous dose, Value expressed as locomotor activity (LMA); format: functional
Rattus norvegicus [35] = experiment: Compound is evaluated biochemically in reserpine-pretreated habituated rats for (50 micro mol/kg) subcuteneous dose in 5-HTP; format: functional
Rattus norvegicus [36] = experiment: Compound is evaluated for DOPA accumulation in reserpine-pretreated habituated rats at 100 micro mol/kg of subcuteneous dose in rat striatum; format: functional
Rattus norvegicus [37] = experiment: Evaluated for locomotor activity in nonpretreated habituated rats in 100 umol/kg of subcuteneous dose; format: functional; parameters: unit not given here
Rattus norvegicus [38] = experiment: Effect (60 min after administration of 200 (micro mol/kg) subcuteneous dose on DA release in brain dialysis model of rat; format: functional
Rattus norvegicus [39] = species: Rattus norvegicus; experiment: Compound was tested in vio for concomitant ability to antagonize the locomotor activity of rat induced by Di-Pr-5,6-ADTN, Value expressed as locomotor activity (LMA), % of control; format: functional; parameters: scale not given: the % may be the effect or the level left

T3 sequence (P14416 whole entry): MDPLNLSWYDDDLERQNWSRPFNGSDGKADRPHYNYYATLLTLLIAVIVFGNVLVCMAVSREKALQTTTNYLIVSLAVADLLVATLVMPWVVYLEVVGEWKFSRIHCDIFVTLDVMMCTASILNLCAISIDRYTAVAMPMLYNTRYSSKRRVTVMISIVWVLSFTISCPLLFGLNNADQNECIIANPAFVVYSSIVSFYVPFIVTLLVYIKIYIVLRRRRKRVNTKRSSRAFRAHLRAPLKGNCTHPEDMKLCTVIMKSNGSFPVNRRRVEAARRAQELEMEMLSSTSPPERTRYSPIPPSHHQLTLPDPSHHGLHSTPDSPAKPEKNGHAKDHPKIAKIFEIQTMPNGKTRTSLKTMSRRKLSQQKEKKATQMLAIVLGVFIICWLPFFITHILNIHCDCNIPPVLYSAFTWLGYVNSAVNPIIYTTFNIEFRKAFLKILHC
T2 sequence (P61169 whole entry): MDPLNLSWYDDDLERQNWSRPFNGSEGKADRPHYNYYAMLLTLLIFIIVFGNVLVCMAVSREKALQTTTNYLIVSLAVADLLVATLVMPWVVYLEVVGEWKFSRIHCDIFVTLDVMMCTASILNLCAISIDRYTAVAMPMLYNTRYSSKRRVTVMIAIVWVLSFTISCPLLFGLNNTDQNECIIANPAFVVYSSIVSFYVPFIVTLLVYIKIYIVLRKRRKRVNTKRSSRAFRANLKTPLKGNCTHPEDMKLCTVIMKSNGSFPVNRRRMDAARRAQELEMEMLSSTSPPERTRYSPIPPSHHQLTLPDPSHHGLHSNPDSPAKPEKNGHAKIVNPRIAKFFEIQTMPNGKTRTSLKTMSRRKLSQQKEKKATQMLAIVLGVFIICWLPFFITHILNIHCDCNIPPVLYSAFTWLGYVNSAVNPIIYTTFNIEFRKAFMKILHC
T1 sequence (P35462 whole entry): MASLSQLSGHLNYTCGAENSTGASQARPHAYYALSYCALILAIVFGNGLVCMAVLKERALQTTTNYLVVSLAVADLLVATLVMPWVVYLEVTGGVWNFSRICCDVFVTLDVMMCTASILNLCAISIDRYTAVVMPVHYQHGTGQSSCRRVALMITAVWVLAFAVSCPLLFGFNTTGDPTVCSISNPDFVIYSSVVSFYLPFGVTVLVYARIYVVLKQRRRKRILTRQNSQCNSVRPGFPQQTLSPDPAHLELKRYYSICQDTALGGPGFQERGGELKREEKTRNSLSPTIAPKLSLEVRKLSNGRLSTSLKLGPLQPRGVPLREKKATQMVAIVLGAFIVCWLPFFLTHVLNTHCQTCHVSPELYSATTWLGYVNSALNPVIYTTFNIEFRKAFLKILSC

SMILES: CCCN1CCC[C@@H](c2cccc(C=O)c2)C1
- Ki (Dopamine receptor): 20 nM
- Ki (D(3) dopamine receptor [1]): 83 nM
- Ki (D(2) dopamine receptor [2]): 1120 nM
- Activity (Rattus norvegicus [3]): 92%
- Activity (Rattus norvegicus [4]): 127%
- LMA (Rattus norvegicus [5]): 5
- LMA (Rattus norvegicus [6]): 208
- Ki (D(2) dopamine receptor [7]): 145 nM

SMILES: CCCN1CCC[C@@H](c2cccc(Br)c2)C1
- Ki (Dopamine receptor): 106 nM
- Ki (D(3) dopamine receptor [1]): 171 nM
- Ki (D(2) dopamine receptor [2]): 533 nM
- Activity (Rattus norvegicus [8]): 199%
- Activity (Rattus norvegicus [3]): 101%
- Activity (Rattus norvegicus [4]): 145%
- Activity (Rattus norvegicus [9]): 363%
- LMA (Rattus norvegicus [10]): 15
- LMA (Rattus norvegicus [11]): 140
- LMA (Rattus norvegicus [6]): 470
- Ki (D(2) dopamine receptor [7]): 170 nM

SMILES: O=C(CCCN1CCC(O)(c2ccc(Cl)cc2)CC1)c1ccc(F)cc1 [HALOPERIDOL]
- Activity (Rattus norvegicus [12]): 356%
- Activity (Rattus norvegicus [4]): 404%
- Activity (Rattus norvegicus [13]): 82%
- Activity (Rattus norvegicus [14]): 211%
- LMA (Rattus norvegicus [15]): 7%
- LMA (Rattus norvegicus [16]): 61
- LMA (Rattus norvegicus [17]): 2

SMILES: CCCN1CCC[C@@H](c2cccc(OS(=O)(=O)c3ccc(C)cc3)c2)C1
- Ki (Dopamine receptor): 162 nM
- Ki (D(3) dopamine receptor [1]): 92 nM
- Ki (D(2) dopamine receptor [2]): 1320 nM
- Activity (Rattus norvegicus [18]): 89%
- LMA (Rattus norvegicus [6]): 152
- Ki (D(2) dopamine receptor [7]): > 217 nM

SMILES: C#Cc1cccc([C@@H]2CCCN(CCC)C2)c1
- Ki (Dopamine receptor): 334 nM
- Ki (D(3) dopamine receptor [1]): 339 nM
- Ki (D(2) dopamine receptor [2]): 709 nM
- Activity (Rattus norvegicus [19]): 136%
- Activity (Rattus norvegicus [4]): 138%
- Activity (Rattus norvegicus [20]): 265%
- LMA (Rattus norvegicus [11]): 237
- LMA (Rattus norvegicus [6]): 671
- Ki (D(2) dopamine receptor [7]): > 217 nM

SMILES: CCCN1CCC[C@@H](c2cccc(C(C)=O)c2)C1
- Ki (D(3) dopamine receptor [21]): 2150 nM
- Activity (Rattus norvegicus [22]): 73%
- Activity (Rattus norvegicus [23]): 243%
- Activity (Rattus norvegicus [24]): 179%
- Control (Rattus norvegicus [25]): 44%
- Locomotor activity (% of control) (Rattus norvegicus [26]): 139%
- Control (Rattus norvegicus [27]): 824%
- Control (Rattus norvegicus [28]): 7%
- Control (Rattus norvegicus [29]): 183%
- Control (Rattus norvegicus [30]): 81%
- Ki (D(2) dopamine receptor [31]): 6540 nM
- Ki (D(2) dopamine receptor [7]): > 217 nM
- Ki (D(2) dopamine receptor [32]): > 1850 nM

SMILES: CCCN1CCC[C@@H](c2cccc(CO)c2)C1
- Ki (D(3) dopamine receptor [21]): 1460 nM
- Activity (Rattus norvegicus [22]): 50%
- Activity (Rattus norvegicus [33]): 118%
- Activity (Rattus norvegicus [23]): 138%
- Activity (Rattus norvegicus [24]): 175%
- Control (Rattus norvegicus [34]): 123%
- Control (Rattus norvegicus [27]): 187%
- Control (Rattus norvegicus [28]): 3%
- Ki (D(2) dopamine receptor [31]): 410 nM
- Ki (D(2) dopamine receptor [7]): > 217 nM
- Ki (D(2) dopamine receptor [32]): 240 nM

SMILES: CCCN1CCC[C@@H](c2ccccc2)C1
- Ki (Dopamine receptor): 222 nM
- Ki (D(3) dopamine receptor [1]): 777 nM
- Ki (D(2) dopamine receptor [2]): 1490 nM
- Activity (Rattus norvegicus [8]): 140%
- Activity (Rattus norvegicus [3]): 65%
- Activity (Rattus norvegicus [4]): 188%
- Activity (Rattus norvegicus [13]): 20%
- Activity (Rattus norvegicus [9]): 473%
- LMA (Rattus norvegicus [15]): 90%
- Ki (D(2) dopamine receptor [7]): > 217 nM

SMILES: C=CCN1CCC2c3cccc(OS(=O)(=O)C(F)(F)F)c3CCC21 (centres undefined)
- Ki (Dopamine receptor): 125 nM
- Ki (D(3) dopamine receptor [1]): 67 nM
- Ki (D(2) dopamine receptor [2]): > 172 nM
- Activity (Rattus norvegicus [35]): 52%
- Activity (Rattus norvegicus [36]): 92%
- Activity (Rattus norvegicus [4]): 175%
- LMA (Rattus norvegicus [37]): 443 and 635
- Ki (D(2) dopamine receptor [7]): > 217 nM

SMILES: O=S(=O)(Oc1cccc([C@@H]2CCCN(CCc3ccccc3)C2)c1)C(F)(F)F
- Ki (Dopamine receptor): 11 nM
- Ki (D(3) dopamine receptor [1]): 19 nM
- Ki (D(2) dopamine receptor [2]): 40 nM
- Activity (Rattus norvegicus [8]): 111%
- Activity (Rattus norvegicus [36]): 66%
- Activity (Rattus norvegicus [38]): 89%
- LMA (Rattus norvegicus [37]): 20
- Ki (D(2) dopamine receptor [7]): 73 nM

SMILES: CCCN1CCC[C@@H](c2cccc(C#N)c2)C1
- Ki (D(3) dopamine receptor [21]): 249 nM
- Activity (Rattus norvegicus [24]): 252%
- Control (Rattus norvegicus [39]): 31%
- Control (Rattus norvegicus [25]): 66%
- Control (Rattus norvegicus [28]): 12%
- Ki (D(2) dopamine receptor [31]): 1140 nM
- Ki (D(2) dopamine receptor [7]): 265 nM
- Ki (D(2) dopamine receptor [32]): 119 nM
